According to PMC5681660, “Reduced hepatitis B and D viral entry using clinically applied drugs as novel inhibitors of the bile acid transporter NTCP” (Scientific Reports, 2017):
Where a name gives a salt, the structure may show the parent alone.

Biological target: T1, human NTCP (Homo sapiens, UniProt Q14973)
T1 sequence (Q14973 1-349): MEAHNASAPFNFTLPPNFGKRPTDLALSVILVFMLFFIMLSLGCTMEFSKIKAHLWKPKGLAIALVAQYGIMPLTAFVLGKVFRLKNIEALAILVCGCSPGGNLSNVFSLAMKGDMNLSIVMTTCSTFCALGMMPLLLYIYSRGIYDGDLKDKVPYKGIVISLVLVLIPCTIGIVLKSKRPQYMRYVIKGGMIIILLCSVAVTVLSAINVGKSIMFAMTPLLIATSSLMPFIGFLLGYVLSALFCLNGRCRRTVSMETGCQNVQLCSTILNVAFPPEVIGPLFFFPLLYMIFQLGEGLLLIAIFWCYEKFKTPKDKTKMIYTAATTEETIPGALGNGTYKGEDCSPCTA
Assay: Screening taurocholate uptake assay (96-well, [14C]taurocholate, 10 µM drug)
Details: for B-score functional assay: screening taurocholate uptake, 10 µM drug

[1] = combined ranking of functional and binding screening assays
[2] = ranking over the functional and the binding screening assay

Row | Ranking score [1] | B-score functional assay (B-score) | B-score functional assay | Ranking score [2] | SMILES
1 | 475.277 |  | -1.309 |  | O=c1[nH]c2ccccc2n1CCCN1CCC(n2c(=O)[nH]c3cc(Cl)ccc32)CC1 [Domperidone]
2 | 532.5 |  | -0.177 |  | CCN(CC)CCOC(=O)C(c1ccccc1)C1CCCCC1 (stereo not drawn) [Drofenine hydrochloride]
3 | 591.312 |  | -0.08 |  | CCCCOc1ccc(C(=O)CCN2CCCCC2)cc1 [Dyclonine hydrochloride]
4 | 511.223 |  | -1.016 |  | CC(=O)[C@H]1CC[C@H]2[C@@H]3C=CC4=CC(=O)CC[C@@]4(C)[C@@H]3CC[C@]12C [Dydrogesterone]
5 |  |  | -4.734 | 12.2474 | O=c1c2ccccc2[se]n1-c1ccccc1 [Ebselen]
6 |  |  | -2.794 | 155.949 | Clc1ccc(COC(Cn2ccnc2)c2ccc(Cl)cc2Cl)cc1 (stereo not drawn) [Econazole nitrate]
7 | 501.772 |  | -0.5 |  | CCOCCn1c(N2CCCN(C)CC2)nc2ccccc21 [Emedastine]
8 | 592.625 |  | -0.129 |  | C=CCOC(Cn1ccnc1)c1ccc(Cl)cc1Cl (stereo not drawn) [Enilconazole]
9 |  |  | 0.634 | 209.705 | COc1cc(C)nc(-n2nc(C)cc2OC)n1 [Epirizole]
10 |  |  | -3.126 | 239.996 | C#Cc1cccc(Nc2ncnc3cc(OCCOC)c(OCCOC)cc23)c1 [Erlotinib]
11 | 540.899 |  | 0.103 |  | CN(C)CCC[C@@]1(c2ccc(F)cc2)OCc2cc(C#N)ccc21 [Escitalopram oxalate]
12 | 589.644 |  | 0.325 |  | C[C@]12CC[C@@H]3c4ccc(O)cc4CC[C@H]3[C@@H]1C[C@@H](O)[C@@H]2O [Estriol]
13 |  |  | -4.027 | 54.037 | C[C@]12CC[C@@H]3c4ccc(OS(=O)(=O)O)cc4CC[C@H]3[C@@H]1CCC2=O [Estropipate]
14 |  |  | -3.373 | 218.945 | CC[C@@H](CO)NCCN[C@@H](CC)CO [Ethambutol dihydrochloride]
15 | 538.826 |  | -1.181 |  | CCN(CC)C(=O)c1ccc(O)c(OC)c1 [Ethamivan]
16 |  |  | -1.799 | 213.127 | C#C[C@]1(O)CC[C@H]2[C@@H]3CCc4cc(O)ccc4[C@H]3CC[C@@]21C [Ethinylestradiol]
17 |  |  | 0.084 | 210.286 | CCc1cc(C(N)=S)ccn1 [Ethionamide]
18 |  |  | -1.671 | 238.458 | C#C[C@]1(OC(C)=O)CC[C@H]2[C@@H]3CCC4=C[C@@H](OC(C)=O)CC[C@@H]4[C@H]3CC[C@@]21C [Ethynodiol diacetate]
19 | 552.584 |  | -0.011 |  | C#C[C@]1(O)CC[C@H]2[C@@H]3CCc4cc(OC)ccc4[C@H]3CC[C@@]21C [Ethynylestradiol 3-methyl ether]
20 | 532.717 |  | -0.065 |  | CCc1cccc(CC)c1NC(=O)CN(CC(=O)O)CC(=O)O [Etifenin]
21 | 503.552 |  | -0.021 |  | CCNCC(O)c1cccc(O)c1 (stereo not drawn) [Etilefrine hydrochloride]
22 |  |  | -0.274 | 112.748 | CCc1cccc2c3c([nH]c12)C(CC)(CC(=O)O)OCC3 (stereo not drawn) [Etodolac]
23 |  |  | 1.885 | 165.439 | O=C(OCCOCCO)c1ccccc1Nc1cccc(C(F)(F)F)c1 [Etofenamate]
24 | 568.146 |  | -0.634 |  | C=C1C[C@@H]2[C@H](CC[C@]3(C)C(=O)CC[C@@H]23)[C@@]2(C)C=CC(=O)C=C12 [Exemestane]

Row | Ranking score [1] | B-score functional assay (B-score) | B-score functional assay | Ranking score [2] | SMILES
25 | 539.09 |  | 0.016 |  | CC(=O)OCC(CCn1cnc2cnc(N)nc21)COC(C)=O [Famciclovir]
26 | 558.78 |  | 0.213 |  | NC(=O)OCC(COC(N)=O)c1ccccc1 [Felbamate]
27 | 476.874 |  | -1.207 |  | O=C(O)Cc1ccc(-c2ccccc2)cc1 [Felbinac]
28 | 465.188 |  | 1.073 |  | CCOC(=O)C1=C(C)NC(C)=C(C(=O)OC)C1c1cccc(Cl)c1Cl (stereo not drawn) [Felodipine]
29 | 1220.76 | 1.989 |  |  | COC(=O)Nc1nc2ccc(Sc3ccccc3)cc2[nH]1 [Fenbendazole]
30 |  |  | -0.159 | 212.979 | CC(C)OC(=O)C(C)(C)Oc1ccc(C(=O)c2ccc(Cl)cc2)cc1 [Fenofibrate]
31 |  |  | 0.056 | 222.621 | Oc1ccc(C2CNCCc3c2cc(O)c(O)c3Cl)cc1 (stereo not drawn) [Fenoldopam]
32 |  |  | -2.318 | 234.288 | CC(C)(C(=O)O)c1ccc(C(O)CCCN2CCC(C(O)(c3ccccc3)c3ccccc3)CC2)cc1 (stereo not drawn) [Fexofenadine HCl]
33 |  |  | -2.118 | 172.884 | O=C(COc1ccc(Cl)cc1)N1CCN(Cc2ccc3c(c2)OCO3)CC1 [Fipexide hydrochloride]
34 | 1148.84 | 1.693 |  |  | CN1CCN(c2c(F)cc3c(=O)c(C(=O)O)cn(CCF)c3c2F)CC1 [Fleroxacin]
35 |  |  | -0.913 | 235.125 | CS(=O)(=O)c1ccc([C@@H](O)[C@@H](CF)NC(=O)C(Cl)Cl)cc1 [Florfenicol]
36 |  |  | -2.582 | 133.828 | Cc1c(Nc2ncccc2C(=O)O)cccc1C(F)(F)F [Flunixin meglumine]
37 | 619.745 |  | 0.319 |  | CC(=O)OCC(=O)[C@@]12OC(C)(C)O[C@@H]1C[C@H]1[C@@H]3C[C@H](F)C4=CC(=O)C=C[C@]4(C)[C@@]3(F)[C@@H](O)C[C@@]12C [Fluocinonide]
38 | 616.409 |  | -0.26 |  | CC(=O)[C@@]1(O)CC[C@H]2[C@@H]3C[C@H](C)C4=CC(=O)C=C[C@]4(C)[C@@]3(F)[C@@H](O)C[C@@]21C [Fluorometholone]
39 |  |  | -4.102 | 99.0152 | OCCN1CCN(CCCN2c3ccccc3Sc3ccc(C(F)(F)F)cc32)CC1 [Fluphenazine dihydrochloride]
40 | 612.059 |  | -0.613 |  | CC(C(=O)O)c1ccc(-c2ccccc2)c(F)c1 (stereo not drawn) [Flurbiprofen]
41 | 517.364 |  | 0.19 |  | O=C1NCN(c2ccccc2)C12CCN(CCCC(c1ccc(F)cc1)c1ccc(F)cc1)CC2 [Fluspirilen]
42 |  |  | -3.098 | 89.7998 | CC(C)n1c(/C=C/C(O)CC(O)CC(=O)O)c(-c2ccc(F)cc2)c2ccccc21 (stereo not drawn) [Fluvastatin sodium salt]
43 | 486.369 |  | 0.566 |  | COCCCC/C(=N\OCCN)c1ccc(C(F)(F)F)cc1 [Fluvoxamine maleate]
44 | 592.766 |  | 0.718 |  | Cl.O=C1OC(CN2CCOCC2)CN1/N=C/c1ccc([N+](=O)[O-])o1 (stereo not drawn) [Furaltadone hydrochloride]
45 | 1165.28 | 1.457 |  |  | NS(=O)(=O)c1cc(C(=O)O)c(NCc2ccco2)cc1Cl [Furosemide]
46 | 523.068 |  | -0.548 |  | CC(=O)O[C@H]1C[C@@]2(C)[C@@H](C[C@@H](O)[C@H]3[C@@]4(C)CC[C@@H](O)[C@@H](C)[C@@H]4CC[C@@]32C)/C1=C(\CCC=C(C)C)C(=O)O [Fusidic acid sodium salt]
47 |  |  | -0.231 | 269.035 | COc1ccc(-c2ccc(=N)n(CCCC(=O)O)n2)cc1 [Gabazine bromide]

Row | SMILES | Ranking score [1] | B-score functional assay (B-score) | B-score functional assay | Ranking score [2]
48 | CS(=O)(=O)O.O=C(O[C@H]1C[C@H]2CC3C[C@@H](C1)N2CC3=O)c1c[nH]c2ccccc12 [Dolasetron mesilate] | 1169.41 | 1.844 |  | 
49 | C[C@]12CC[C@H]3C(=CCc4cc(O)ccc43)[C@@H]1CCC2=O [Equilin] |  |  | -2.643 | 264.641
50 | CNC(=O)Oc1ccc2c(c1)[C@]1(C)CCN(C)[C@@H]1N2C [Eserine hemisulfate salt] |  |  | -0.074 | 269.255
51 | C[C@]12CC[C@@H]3c4ccc(O)cc4CC[C@H]3[C@@H]1CC[C@@H]2O [Estradiol-17 beta] |  |  | -4.121 | 76.8375
52 | C[C@]12CC[C@@H]3c4ccc(OC(=O)N(CCCl)CCCl)cc4CC[C@H]3[C@@H]1CC[C@@H]2O [Estramustine] |  |  | -1.527 | 134.744
53 | OC(Cn1cncn1)(Cn1cncn1)c1ccc(F)cc1F [Fluconazole] | 553.146 |  | 1.083 | 
54 | C[C@@H]1C[C@H]2[C@@H]3C[C@H](F)C4=CC(=O)C=C[C@]4(C)[C@@]3(F)[C@@H](O)C[C@]2(C)[C@@]1(O)C(=O)COC(=O)C(C)(C)C [Flumethasone pivalate] | 535.546 |  | 0.019 | 
55 | CNCCC(Oc1ccc(C(F)(F)F)cc1)c1ccccc1 (stereo not drawn) [Fluoxetine hydrochloride] |  |  |  | 265.518
56 | CCOC(=O)c1ccc(OC(=O)CCCCCN=C(N)N)cc1.CS(=O)(=O)O [Gabexate mesilate] |  |  | 0.072 | 203.005
